{"source": "paper PMC3812073", "about": "“Partial Deletion of Chromosome 8 β-defensin Cluster Confers Sperm Dysfunction and Infertility in Male Mice” (PLoS Genetics, 2013)", "key": {"sperm": {"test_system": "sperm", "details": "10 µM A23187; cited from earlier work", "description": "We sought to understand why sperm from the DefbΔ9/DefbΔ9 have this precocious capacitation and increased spontaneous AR. Sperm require an increase in intracellular calcium, which causes hyperactivation and allows progression to the AR. Mice deleted for any of the components of the calcium CatSper (cation channels of sperm) channel are infertile due to their lack of ability to transport calcium into the cell, resulting in an inability to undergo capacitation, hyperactivation and prepare sperm for the AR [32]. Conversely, sperm exposed to a ten-fold increase in cauda epididymal calcium concent ..."}, "wild-type cauda sperm [1]": {"test_system": "wild-type cauda sperm", "experiment": "A23187-induced acrosome reaction of wild-type sperm, Coomassie G250 stain", "format": "cell-based, mouse", "details": "wild-type (+/+) sperm treated with A23187, T90 minutes, 157 of 293 sperm, untreated control 14%", "protocol": "(§1) We treated sperm from wild-type littermates (+/+) with A23187 to release calcium and induce AR, and examined their ultrastructure by TEM at the T90 minutes time point (Figure S4).\nCauda sperm were isolated in modified Tyrode's medium, fixed in 4% formalin for 15 mins. Sperm were spun down (1000× g 5 mins) then washed once in 0.1 M ammonium acetate (pH 9.0) and resuspended in a final volume of approximately 50 µl. An aliquot of 20 µl was smeared on glass slide, allowed to air dry then stained for 2 mins with a solution of 0.22% Coomassie blue G250 (wt/v) in 50% methanol (v/v) and 10% acetic acid (v/v). Slides were washed 3 times in distilled water, air-dried and mounted in glycerol. Acrosome integrity of at least 150 sperm per animal was assessed by the presence or absence of an intense blue stain on the anterior sperm head (mean ± SD; n = 3 pairs)."}, "wild-type cauda sperm [2]": {"test_system": "wild-type cauda sperm", "experiment": "TEM of microtubule structure in tails of A23187-treated wild-type sperm", "format": "cell-based, mouse", "details": "wild-type cauda sperm treated with A23187 (1 µM in the Figure S4 legend), T90 minutes, 101/195 tails in focus, control 3%", "protocol": "as §1\nEpididymides and decapsulated testis were fixed with 2% paraformaldehyde (PFA), 2.5% glutaraldehyde in 0.1M sodium cacodylate buffer + 0.04% CaCl2 for 30 mins at room temperature. The tissues were cut roughly into 1 mm cubes and further fixed overnight at 4°C. Fixed cells were rinsed in 0.1M sodium cacodylate buffer + 0.4% CaCl2, post-fixed in 1% osmium tetroxide (OsO4, Agar Scientific) for one hour, and dehydrated in sequential steps of acetone (25%, 50%, 75% and 100% twice) prior to impregnation in increasing concentrations (25%, 50%, 75%) of resin (TAAB Lab Equipment) in acetone followed by 100% resin for 3 times, placed in moulds and polymerised at 60°C for 24 hrs. Ultrathin sections of 70 nm were subsequently cut using a diamond knife on a Leica EM UC7 ultramicrotome. Sections were stretched with chloroform to eliminate compression and mounted on Pioloform filmed copper grids prior to staining with 1% aqueous uranyl acetate and lead citrate (Leica). They were viewed on a Philips CM100 Compustage (FEI) Transmission Electron Microscope with images collected using an AMT CCD camera (Deben). […]"}, "[3]": {"test_system": "Pseudomonas aeruginosa O1 (PAO1)", "experiment": "Antimicrobial killing of Pseudomonas aeruginosa PAO1 by synthetic mature β-defensin peptides", "format": "cell-based", "details": "for bacterial killing after TCEP reduction: reduced peptide (TCEP), 50 µg/ml peptide, PAO1, 3 hours, compared with oxidised form", "description": "The DefbΔ9/DefbΔ9 mice homozygous for the deletion have no obvious gross phenotype compared to littermate controls after 8 generations of backcrossing to C57Bl/6. No change in size, weight or appearance is apparent, except mice carrying the mutant allele have paler tails by virtue of the Agouti transgene included in the MICER vector (data not shown). β-defensins are classically known as antimicrobial peptides, so we tested the mature peptides in vitro against a Gram-negative bacterium (Pseudomonas aeruginosa, PAO1). […] Despite deleting the expression of these antimicrobials from the homozygous mice, there is no indication that the mutant mice have an increased inflammatory profile under normal animal housing conditions. There is no elevation in levels of TNF-α or IL-6 or type I interferon in sera from mutant versus wild-type mice (Figure 1D).\nSupplementary file pgen.1003826.s003.tif: Figure S3 Level of antimicrobial killing against Pseudomonas aeruginosa O1 (PAO1) by the reduced and oxidized peptides. β-defensins with the mature peptide sequences (as shown in Table 1) were purchased from Almac Sciences (Scotland) Limited in an oxidised form. They were tested for their ability to kill PAO1 in 3 hours at various concentrations of peptide. […] TCEP alone had no effect on bacterial survival (data not shown). […] (TIF) Click here for additional data file."}}, "note": "No end group written: not given here.", "data": [{"compound": "CNc1ccc2oc(C[C@H]3O[C@@]4(CC[C@H]3C)O[C@H]([C@H](C)C(=O)c3ccc[nH]3)[C@H](C)C[C@H]4C)nc2c1C(=O)O", "note": "[A23187]", "values": [{"measurement": "acrosome reaction", "setting": "sperm", "result": "will undergo the AR"}, {"measurement": "sperm motility", "setting": "sperm", "result": "immotile"}, {"measurement": "acrosome reacted sperm", "setting": "wild-type cauda sperm [1]", "result": 53, "unit": "%"}, {"measurement": "sperm with microtubule disruption (abnormal tail score)", "setting": "wild-type cauda sperm [2]", "result": 52, "unit": "%"}]}, {"compound": "O=C(O)CCP(CCC(=O)O)CCC(=O)O", "note": "[TCEP, Tris (2-carboxyethyl) phosphine]", "values": [{"measurement": "effect on bacterial survival", "setting": "[3]; TCEP alone, without peptide, data not shown", "result": "no effect"}]}, {"compound": "FDEKCSRVNGRCTAS-CLKNEELVALC-QKNLKCCVTVQPCGKSKSNQSDEGSGHMGTWG (disulfide) [Defb15, mature synthetic mouse β-defensin peptide]", "values": [{"measurement": "bacterial killing after TCEP reduction", "setting": "[3]", "result": "unremarkable"}]}, {"compound": "HPGTFHVRIKCMPKMTAVFGDNCSFYSSMGDLCNNTKSVCCMVPVRMDNI (disulfide (positions not given here)) [Defb50, mature synthetic mouse β-defensin peptide, missing the second cysteine of the motif]", "values": [{"measurement": "antimicrobial activity in either oxidised or reduced form", "setting": "[3]; PAO1, Figure S3", "result": "active antimicrobials"}, {"measurement": "antimicrobial activity, oxidised form", "setting": "[3]; oxidised peptide, PAO1, Figure S3", "result": "poor antimicrobial activity"}, {"measurement": "bacterial killing after TCEP reduction", "setting": "[3]", "result": "improves"}]}]}
